In patent US20120040976A1, “SMALL MOLECULE IMMUNOMODULATORS FOR ALZHEIMER'S DISEASE” (HUMAN BIOMOLECULAR RESEARCH INSTITUTE, priority 2008, published 2012):
In brackets after ≈: the same amount, converted by molar mass.

How the values were obtained:
Average solubility = type: physicochemical
MGAT3 = MGAT3 transcription ratio, AD patient / control PBMCs (qPCR); type: cell-based, human; conditions: Aβ stimulation
Experimental: (§1) qPCR reactions of cultured monocyte cDNAs. One μL total cellular cDNA per reaction is used in triplicate reactions for each test gene, and for each culture treatment. SYBR-Green reactions were run on a Continuous Fluorescence real-time thermocycler and analyzed. Cycle threshold (Ct) values are recorded for each replicate reaction, and are then averaged and normalized against mean Ct values from one or more control genes. Fold-expression differences relative to untreated cells are determined using the 2^−ΔΔCt method as previously described. Data from the curcumin concentration range are plotted in order to determine EC50 values (concentrations producing one-half maximal stimulant activity), which are used for comparisons of potency between different compounds. Data are also evaluated for each gene with regard to sensitivity, maximally effective concentration of curcuminoid, response to Aβ, and overall magnitude of fold-expression changes.
(§2) MGAT3 and/or TLR transcription were tested by qPCR in human monocyte cells treated with curcuminoids and compared the results to those treated with vehicle (Table 7). As discussed above, activation or up-regulation of macrophage MGAT3 or TLR's results in many functional outcomes, including the enhancement of […] and removal of Aβ, increased apoptosis, secretion of inflammatory cytokines, and other anti-AD antimicrobial activities. […] Thus, the ratio of MGAT3 or TLR transcription upon Aβ stimulation of human monocytes versus vehicle treatment provides an indicator and sensitive method to test the in vitro efficacy of drug candidates. […] The relative biological activity of the curcumin analogs in AD patient and control cells was ascertained in the in vitro Aβ assay described above (see Example 2).

[1] = Metabolic stability in human S9 fraction; type: in vitro ADME; conditions: read-out: Half life, t1/2 S9
TLR 4 = TLR 4 transcription ratio, AD patient / control PBMCs (qPCR); type: cell-based, human; conditions: Aβ stimulation
Experimental: as §1, §2

TLR 2 = TLR 2 transcription ratio, AD patient / control PBMCs (qPCR); type: cell-based, human; conditions: Aβ stimulation
Experimental: as §1, §2

[2] = Metabolic stability in human liver microsomes; type: in vitro ADME; conditions: read-out: Half life, t1/2 HLM
TLR 3 = TLR 3 transcription ratio, AD patient / control PBMCs (qPCR); type: cell-based, human; conditions: Aβ stimulation
Experimental: as §1, §2

[3] = Chemical stability (H2O, pH 7.4); type: physicochemical
Average permeability = type: in vitro ADME; conditions: not told
[4] = water (aqueous solution), pH 7.4, value given in h, read-out: Chemical stability t1/2 pH 7.4 (converted)
[5] = water, H2O, value given in h, read-out: Chemical stability t1/2 H2O (converted)
[6] = water (aqueous solution), pH 7.4, read-out: Chemical stability t1/2 pH 7.4 (converted)
[7] = water, H2O, read-out: Chemical stability t1/2 H2O (converted)

Compound | solubility (Average solubility) [µg/mL] | half-life [1] [min] | half-life ([2]; human) [min] | half-life [3, 4] [min] | half-life [3, 5] [min] | Avg. Solubility (Average solubility) | IC50 (Anti-oxidant activity) [µM] | half-life [3, 6] [min] | half-life [3, 7] [min] | Papp (Average permeability) [×10⁻⁶ cm/s] | half-life ([2]; value given in h) [min] | Relative ratio of MGAT3 transcription in AD patient / control PBMC's (MGAT3) | Relative ratio of TLR 4 transcription in AD patient / control PBMC's (TLR 4) | Relative ratio of TLR 2 transcription in AD patient / control PBMC's (TLR 2) | Relative ratio of TLR 3 transcription in AD patient / control PBMC's (TLR 3) | Chemical stability H2O (stable/unstable) ([3]; H2O) | Chemical stability pH 7.4 (stable/unstable) ([3]; pH 7.4)
COc1cc(N(C)C)ccc1/C=C/C(=O)/C=C(O)/C=C/c1ccc(N(C)C)cc1OC [Compound 3, 1,7-Bis(4-dimethylamino-2-methoxyphenyl)-5-hydroxy-hepta-1,4,6-trien-3-one] | 0.73 (≈ 1.73 µM) | 39.5 | 63.6 | 1530 | 1190 |  |  |  |  |  |  | ++ ((++) indicates a ratio of 1.5-2.0) | TLR 4 ++ ((++) indicates a ratio of 1.5-2.0) | TLR 2 ++ ((++) indicates a ratio of 1.5-2.0) | TLR 3 ++ ((++) indicates a ratio of 1.5-2.0) |  | 
O=C(/C=C(\O)CCc1ccc(O)cc1)CCc1ccc(O)cc1 [Compound 5, 5-Hydroxy-1,7-bis(4-hydroxyphenyl)hept-4-en-3-one] |  |  |  |  |  | insol | > 250 |  |  |  |  |  |  |  |  |  | 
O=C1/C(=C(O)/C=C/c2ccc(O)cc2)CCC/C1=C\c1ccc(O)cc1 [Compound 6, 2-(4-Hydroxybenzylidene)-6-(3-(4-hydroxyphenyl)acryloyl)cyclohexanone] |  | 35.2 | 60.6 |  |  |  | > 250 | 436 | 244 |  |  | +++ ((+++ to ++++) indicates a ratio of 2.0 and above) |  |  |  |  | 
COc1cc(N(C)C)ccc1/C=C/C(O)=C1\CCC/C(=C\c2ccc(N(C)C)cc2OC)C1=O [Compound 7, 2-(4-(Dimethylamino-2-methoxybenzylidene)-3-(4-(dimethylamino)-2-methoxyphenyl)-1-hydroxyallylidene)cyclohexanone] |  | 184 | 127 |  |  |  |  |  |  | 4.8 |  | +++ ((+++ to ++++) indicates a ratio of 2.0 and above) |  |  |  | stable^a (stability half-lives greater than 5 hours) | stable (stability half-lives greater than 5 hours)
COc1ccc(F)cc1/C=C/C(O)=C/C(=O)/C=C/c1ccc(N(C)C)cc1 [Compound 31] |  |  |  |  |  |  |  |  |  |  |  | ++ ((++) indicates a ratio of 1.5-2.0) | TLR 4 ++ ((++) indicates a ratio of 1.5-2.0) | TLR 2 ++ ((++) indicates a ratio of 1.5-2.0) | TLR 3 ++ ((++) indicates a ratio of 1.5-2.0) |  | 

The next lines start with results.

solubility (Average solubility) [µg/mL] | half-life [1] [min] | half-life ([2]; human) [min] | half-life [3, 4] [min] | half-life [3, 5] [min] | Avg. Solubility (Average solubility) | IC50 (Anti-oxidant activity) [µM] | half-life [3, 6] [min] | half-life [3, 7] [min] | Papp (Average permeability) [×10⁻⁶ cm/s] | half-life ([2]; value given in h) [min] | Compound | Relative ratio of MGAT3 transcription in AD patient / control PBMC's (MGAT3) | Relative ratio of TLR 4 transcription in AD patient / control PBMC's (TLR 4) | Relative ratio of TLR 2 transcription in AD patient / control PBMC's (TLR 2) | Relative ratio of TLR 3 transcription in AD patient / control PBMC's (TLR 3) | Chemical stability H2O (stable/unstable) ([3]; H2O) | Chemical stability pH 7.4 (stable/unstable) ([3]; pH 7.4)
0.23 (≈ 0.635 µM) | 22.7 | 41.5 |  |  |  |  |  |  |  |  | CN(C)c1ccc(/C=C/C(=O)/C=C(O)/C=C/c2ccc(N(C)C)cc2)cc1 [Compound 20, 1,7-bis-(4-Dimethylaminophenyl)-5-hydroxy-hepta-1,4,6-trien-3-one] | ++++ ((+++ to ++++) indicates a ratio of 2.0 and above) |  |  |  | stable (stability half-lives greater than 5 hours) | stable (stability half-lives greater than 5 hours)
 | 10.9 | 72.8 |  |  |  |  |  |  |  |  | COc1ccccc1/C=C/C(=O)/C=C(O)/C=C/c1ccccc1OC [Compound 25, 5-Hydroxy-1,7-bis-(2-methoxyphenyl)-hepta-1,4,6-trien-3-one] | ++++ ((+++ to ++++) indicates a ratio of 2.0 and above) | TLR 4 + ((+) indicates a ratio of 1.0-1.5) | TLR 2 +++ ((+++ to ++++) indicates a ratio of 2.0 and above) | TLR 3 ++ ((++) indicates a ratio of 1.5-2.0) |  | 
0.44 (≈ 1.18 µM) | 8.2 | 59.2 |  |  |  | > 250 |  |  | 129 |  | COc1ccc(F)cc1/C=C/C(=O)/C=C(O)/C=C/c1cc(F)ccc1OC [Compound 26, 1,7-bis-(5-Fluoro-2-methoxyphenyl)-5-hydroxy-hepta-1,4,6-trien-3-one] |  | TLR 4 + ((+) indicates a ratio of 1.0-1.5) | TLR 2 + ((+) indicates a ratio of 1.0-1.5) | TLR 3 ++ ((++) indicates a ratio of 1.5-2.0) | stable (stability half-lives greater than 5 hours) | stable (stability half-lives greater than 5 hours)
 |  |  |  |  |  | > 250 |  |  |  |  | CC(C)(C)c1ccc(/C=C/C(=O)/C=C(O)/C=C/c2ccc(C(C)(C)C)cc2)cc1 [Compound 30, 1,7-bis(4-tert-Butylphenyl)-5-hydroxyhepta-1,4,6-trien-3-one] | + ((+) indicates a ratio of 1.0-1.5) | TLR 4 + ((+) indicates a ratio of 1.0-1.5) | TLR 2 + ((+) indicates a ratio of 1.0-1.5) | TLR 3 ++ ((++) indicates a ratio of 1.5-2.0) |  | 
 | 4.5 | 19.9 |  |  |  | > 250 |  | 10.2 |  |  | NCCCCC(N)C(=O)Oc1ccc(/C=C/C(=O)/C=C(O)/C=C/c2ccc(OC(=O)C(N)CCCCN)cc2)cc1 (stereo not drawn) [Compound 34, 4,4′-(3,5-Dioxohepta-1,6-diene-1,7-diyl)bis(4,1-phenylene) bis(2,6-diaminohexanoate)] | ++ ((++) indicates a ratio of 1.5-2.0) | TLR 4 + ((+) indicates a ratio of 1.0-1.5) | TLR 2 +++ ((+++ to ++++) indicates a ratio of 2.0 and above) | TLR 3 ++ ((++) indicates a ratio of 1.5-2.0) |  | unstable^b (stability half-lives less than 5 minutes)
22.8 (≈ 40.2 µM) | 9 | 55.8 | 138 | 1090 |  |  |  |  | 572 |  | COc1cc(/C=C/C(=O)/C=C(O)/C=C/c2ccc(OC(=O)C(N)C(C)C)c(OC)c2)ccc1OC(=O)C(N)C(C)C (stereo not drawn) [Compound 35, 4,4′-(3,5-Dioxohepta-1,6-diene-1,7-diyl)bis(2-methoxy-4,1-phenylene)bis(2-amino-3-methylbutanoate)] | ++ ((++) indicates a ratio of 1.5-2.0) | TLR 4 + ((+) indicates a ratio of 1.0-1.5) | TLR 2 +++ ((+++ to ++++) indicates a ratio of 2.0 and above) |  |  | 
 | 33.2 |  |  |  |  | > 250 | < 16 | 95.9 |  | > 60 | CC(C)C(N)C(=O)Oc1ccc(/C=C/C(=O)C2CCC/C(=C\c3ccc(OC(=O)C(N)C(C)C)cc3)C2=O)cc1 (stereo not drawn) [Compound 37] | ++ ((++) indicates a ratio of 1.5-2.0) |  |  |  |  | 
 | 33.6 |  |  |  |  | > 250 |  |  |  | > 60 | NCCCCC(N)C(=O)Oc1ccc(/C=C/C(=O)C2CCC/C(=C\c3ccc(OC(=O)C(N)CCCCN)cc3)C2=O)cc1 (stereo not drawn) [Compound 38] | + ((+) indicates a ratio of 1.0-1.5) |  |  |  | unstable (stability half-lives less than 5 minutes) | unstable (stability half-lives less than 5 minutes)
